From US9346746B2, “R(+)-N-formyl-propargyl-aminoindan” (Teva Pharmaceutical Industries, Ltd., priority 2011, dated 2016)
Read-outs that look alike come from different tables or passages of the source.

Key:
[1] = in vivo; cited from earlier work
[2] = 1 mg/ml, air, Ethanol, 78 °C, 168 hrs
Experimental: The solutions were exposed to heating in oven under air atmosphere in amber glass vials closed with Teflon stoppers and covered with aluminum foil for protection from light. After completion of the treatment the samples were refrigerated at 2-8° C. and analyzed later using HPLC.

[3] = RH=100%, room temperature, 7 days
[4] = room temperature, initial peroxide 3%
Experimental: Then peroxide and water were added; complete dissolution of solid was achieved by shaking.
After holding at room temperature for 10 minutes to 20 hrs (oxidation time), the solutions were diluted with mobile phase and analyzed by HPLC.

[5] = melt phase, Air
Experimental: Samples intended to degrade under an inert atmosphere were flushed with nitrogen for 5 minutes before closing with a stopper.
The samples were introduced into a pre-heated oven and held at a constant temperature of 78 and 90° C. for 24, 72 or 137 hrs. After completion of the treatment the samples were refrigerated and analyzed.

[6] = for R(+)-N-formyl-PAI, % of Rasagiline: 90° C., air, 1 mg/ml
Experimental: An additional series of degradation experiments was performed at 90° C. in order to achieve even higher degradation of Rasagiline in aqueous solutions.
For this series the treatment time was 1 and 2 weeks, and phosphate-citrate buffer (pH=2.6) and phosphate buffer (pH=8.0) were used.
The solutions were exposed to heat in an oven under an air atmosphere in amber glass vials closed with Teflon stoppers and covered with aluminum foil for protection from light.
The samples were introduced into an oven pre-heated to 90° C. and held at this temperature for 7 or 14 days. After completion of the treatment the samples were refrigerated at 2-8° C. and analyzed.

## C#CCN[C@@H]1CCc2ccccc21 [Rasagiline base, R(+)-N-propargyl-1-aminoindan]
[1]
  absolute bioavailability: about 36%
[2]
  R(+)-N-formyl-PAI, % of Rasagiline: <0.04 % of Rasagiline
[3]
  R(+)-N-formyl-PAI after humidity stress: not detected
[4]; oxidation time 5:00 hr:min
  R(+)-N-formyl-PAI, % of Rasagiline: 0.17 % of Rasagiline
[4]; oxidation time 20:00 hr:min
  R(+)-N-formyl-PAI, % of Rasagiline: 0.23 % of Rasagiline
[5]; 78 deg. C., 24 hrs
  R(+)-N-formyl-PAI, % of Rasagiline: 0.14 % of Rasagiline
[5]; 78 deg. C., 72 hrs
  R(+)-N-formyl-PAI, % of Rasagiline: 0.10 % of Rasagiline
[5]; 90 deg. C., 24 hrs
  R(+)-N-formyl-PAI, % of Rasagiline: 0.08 % of Rasagiline
[5]; 90 deg. C., 72 hrs
  R(+)-N-formyl-PAI, % of Rasagiline: 0.07 % of Rasagiline
[5]; 90 deg. C., 137 hrs
  R(+)-N-formyl-PAI, % of Rasagiline: 0.07 % of Rasagiline
[6]; Acetate buffer pH = 4.1, 1 week
  R(+)-N-formyl-PAI, % of Rasagiline: 0.05 % of Rasagiline
[6]; Phosphate buffer pH = 6.0, 1 week
  R(+)-N-formyl-PAI, % of Rasagiline: 0.07 % of Rasagiline
[6]; Phosphate buffer pH = 6.0, 2 weeks
  R(+)-N-formyl-PAI, % of Rasagiline: 0.16 % of Rasagiline
[6]; Phosphate buffer pH = 8.0, 1 week
  R(+)-N-formyl-PAI, % of Rasagiline: 0.22 % of Rasagiline
[6]; Phosphate buffer pH = 8.0, 2 weeks
  R(+)-N-formyl-PAI, % of Rasagiline: 0.19 % of Rasagiline
[6]; Phosphate-citrate buffer 3.6, 1 week
  R(+)-N-formyl-PAI, % of Rasagiline: 0.13 % of Rasagiline
[6]; Phosphate-citrate buffer 3.6, 2 weeks
  R(+)-N-formyl-PAI, % of Rasagiline: 0.11 % of Rasagiline
[6]; Phosphate-citrate buffer pH = 2.6, 1 week
  R(+)-N-formyl-PAI, % of Rasagiline: 0.17 % of Rasagiline
[6]; Phosphate-citrate buffer pH = 2.6, 2 weeks
  R(+)-N-formyl-PAI, % of Rasagiline: 0.26 % of Rasagiline
[6]; aqueous solutions at 90° C., summary statement
  R(+)-N-formyl-PAI found in the solutions: above 0.1 % area of Rasagiline
